{
  "source": "patent US20040192652A1",
  "about": "“Pharmaceutical combinations and methods for the treatment of leukemia” (priority 2002, published 2004)",
  "key": {"KBM-5 cells": {"system": "KBM-5 cells", "settings": "KBM5 cells"}, "KBM-7 cells": {"system": "KBM-7 cells", "settings": "KBM7 cells"}, "[1]": {"system": "KBM-5 chronic myeloid leukemia cells", "test": "In vivo antitumor activity (survival) in mice bearing KBM-5 cells", "procedure": "(§1) Three to five week-old ICR SCID female mice weighting 20-25 g were obtained from Taconic farms. They were acclimatized for a week prior to the experiment. The animals were maintained on a standard animals feed and drinking water ad libitum. Mice were housed in an air-conditioned room at the temperature of 22±1° C. and 50-70% humidity with a 12/12 h-light/dark cycle throughout the experiment.\n(§2) Mice were irradiated (1×250 centigray; cGy) and injected i.p. with 2×10^7 or 2,4×10^7 KBM-5 or KBM-5R tumor cells, respectively. […] In primary experiments (with KBM-5 cells) or secondary experiments (with KBM-5R cells), tumor-bearing animals were randomised (8-10 per group and treated by Troxatyl™ i.p. at 5, 10, 20, or 25 mg/kg once a day for 5 consecutive days (days 20-24). Control (untreated) mice received saline. In third experiments (with KBM-5 cells), tumor bearing animals (6 per group) were treated by one of the following schemes:\n(§3) Animals in complete remission, free of detectable tumor (negative for human DQα-gen) were considered cured.\n(§4) LTS were electively sacrificed on Day 95 in single agent experiments or on Day 100 in combination treatment experiment."}, "[2]": {"system": "KBM-5R chronic myeloid leukemia cells (STI-571 resistant)", "test": "In vivo antitumor activity (survival) in mice bearing KBM-5R cells", "settings": "for ILS % / Median survival time / Rang survival time / T/C %: qd × 5; for LTS (long term survivors): qd × 5, sacrificed Day 95", "procedure": "as §1, §2, §3, §4"}, "[3]": {"settings": "KBM-5, third (combination) experiment, 50 mg/kg ip, bid × 10"}, "[4]": {"settings": "KBM-5, primary experiment, 5 mg/kg ip, qd × 5"}, "[5]": {"settings": "KBM-5, primary experiment, 10 mg/kg ip, qd × 5"}, "[6]": {"settings": "KBM-5, primary experiment, 20 mg/kg ip, qd × 5"}, "[7]": {"settings": "KBM-5, primary experiment, 25 mg/kg ip, qd × 5"}, "[8]": {"settings": "KBM-5, third (combination) experiment, 10 mg/kg ip, qd × 5"}, "[9]": {"settings": "KBM-5, third (combination) experiment, 25 mg/kg ip, qd × 5"}},
  "note": "Where a name gives a salt, the structure may show the parent alone.",
  "data": [
    {"smiles": "Cc1ccc(NC(=O)c2ccc(CN3CCN(C)CC3)cc2)cc1Nc1nccc(-c2cccnc2)n1", "note": "[STI-571, imatinib mesylate]", "values": [
      {"measurement": "response to STI-571 exposure", "setting": "KBM-5 cells", "value": "G0/G1 cell cycle arrest"},
      {"measurement": "response to STI-571 exposure", "setting": "KBM-7 cells", "value": "apoptosis"},
      {"measurement": "STI-571 concentration at which proliferation was almost completely abolished", "setting": "KBM7-STI^R1.0 cells", "value": 7.5, "unit": "µM"},
      {"measurement": "ILS %", "setting": "[1]; [3]", "value": 8.95, "unit": "%"},
      {"measurement": "Median survival time", "setting": "[1]; [3]", "value": 31.16, "unit": "days"},
      {"measurement": "Rang survival time", "setting": "[1]; [3]", "value": "26 to 40", "unit": "days"},
      {"measurement": "STI-571 concentration up to which cells still proliferated", "setting": "KBM5-STI^R1.0 cells", "value": "up to 10 μM"}
    ]},
    {"smiles": "Nc1ccn([C@@H]2CO[C@H](CO)O2)c(=O)n1", "note": "[Troxatyl ™, (−)-β-L-Dioxolane-Cytidine]", "values": [
      {"measurement": "ILS %", "setting": "[2]; 5 mg/kg ip", "value": 13.93, "unit": "%"},
      {"measurement": "Median survival time", "setting": "[2]; 5 mg/kg ip", "value": 37.142, "unit": "days"},
      {"measurement": "Rang survival time", "setting": "[2]; 5 mg/kg ip", "value": "36 to 50", "unit": "days"},
      {"measurement": "T/C %", "setting": "[2]; 5 mg/kg ip", "value": 113.93, "unit": "%"},
      {"measurement": "LTS (long term survivors)", "setting": "[2]; 5 mg/kg ip", "value": 2},
      {"measurement": "ILS %", "setting": "[2]; 10 mg/kg ip", "value": 50.64, "unit": "%"},
      {"measurement": "Median survival time", "setting": "[2]; 10 mg/kg ip", "value": 49.11, "unit": "days"},
      {"measurement": "Rang survival time", "setting": "[2]; 10 mg/kg ip", "value": "36 to 69", "unit": "days"},
      {"measurement": "T/C %", "setting": "[2]; 10 mg/kg ip", "value": 150.64, "unit": "%"},
      {"measurement": "ILS %", "setting": "[2]; 20 mg/kg ip", "value": 56.84, "unit": "%"},
      {"measurement": "Median survival time", "setting": "[2]; 20 mg/kg ip", "value": 51.13, "unit": "days"},
      {"measurement": "Rang survival time", "setting": "[2]; 20 mg/kg ip", "value": "37 to 69", "unit": "days"},
      {"measurement": "T/C %", "setting": "[2]; 20 mg/kg ip", "value": 156.84, "unit": "%"},
      {"measurement": "ILS %", "setting": "[2]; 25 mg/kg ip", "value": 54.66, "unit": "%"},
      {"measurement": "Median survival time", "setting": "[2]; 25 mg/kg ip", "value": 50.42, "unit": "days"},
      {"measurement": "Rang survival time", "setting": "[2]; 25 mg/kg ip", "value": "35 to 69", "unit": "days"},
      {"measurement": "T/C %", "setting": "[2]; 25 mg/kg ip", "value": 154.66, "unit": "%"},
      {"measurement": "LTS (long term survivors)", "setting": "[2]; 25 mg/kg ip", "value": 1},
      {"measurement": "ILS %", "setting": "[1]; [4]", "value": 57.09, "unit": "%"},
      {"measurement": "Median survival time", "setting": "[1]; [4]", "value": 54, "unit": "days"},
      {"measurement": "Rang survival time", "setting": "[1]; [4]", "value": "46 to 66", "unit": "days"},
      {"measurement": "T/C %", "setting": "[1]; [4]", "value": 157.09, "unit": "%"},
      {"measurement": "LTS (long term survivors)", "setting": "[1]; KBM-5, primary experiment, 5 mg/kg ip, qd × 5, sacrificed Day 95", "value": 1},
      {"measurement": "ILS %", "setting": "[1]; [5]", "value": 45.45, "unit": "%"},
      {"measurement": "Median survival time", "setting": "[1]; [5]", "value": 50, "unit": "days"},
      {"measurement": "Rang survival time", "setting": "[1]; [5]", "value": "44 to 66", "unit": "days"},
      {"measurement": "T/C %", "setting": "[1]; [5]", "value": 145.45, "unit": "%"},
      {"measurement": "ILS %", "setting": "[1]; [6]", "value": 33.82, "unit": "%"},
      {"measurement": "Median survival time", "setting": "[1]; [6]", "value": 46, "unit": "days"},
      {"measurement": "Rang survival time", "setting": "[1]; [6]", "value": "36 to 58", "unit": "days"},
      {"measurement": "T/C %", "setting": "[1]; [6]", "value": 133.82, "unit": "%"},
      {"measurement": "ILS %", "setting": "[1]; [7]", "value": 68.73, "unit": "%"},
      {"measurement": "Median survival time", "setting": "[1]; [7]", "value": 58, "unit": "days"},
      {"measurement": "Rang survival time", "setting": "[1]; [7]", "value": "35 to 74", "unit": "days"},
      {"measurement": "T/C %", "setting": "[1]; [7]", "value": 168.73, "unit": "%"},
      {"measurement": "ILS %", "setting": "[1]; [8]", "value": 50.90, "unit": "%"},
      {"measurement": "Median survival time", "setting": "[1]; [8]", "value": 43.16, "unit": "days"},
      {"measurement": "Rang survival time", "setting": "[1]; [8]", "value": "38 to 50", "unit": "days"},
      {"measurement": "T/C %", "setting": "[1]; [8]", "value": 150.9, "unit": "%"},
      {"measurement": "ILS %", "setting": "[1]; [9]", "value": 71.33, "unit": "%"},
      {"measurement": "Median survival time", "setting": "[1]; [9]", "value": 49, "unit": "days"},
      {"measurement": "Rang survival time", "setting": "[1]; [9]", "value": "40 to 56", "unit": "days"},
      {"measurement": "T/C %", "setting": "[1]; [9]", "value": 171.33, "unit": "%"}
    ]}
  ]
}
